From US9464058B2 (Hoffmann-La Roche Inc., priority 2012, dated 2016)

What was measured:
[1] = target: T1, human CYP11B1 (Homo sapiens, UniProt P15538); experiment: G-402 cellular enzyme assay, human CYP11B1 (cortisol release, HTRF); format: cell-based; conditions: G-402 cells expressing human CYP11B1; 1 μM Deoxycortisol; 16 h
T1 construct: expressed in transfected cells
T1 sequence (P15538 25-503): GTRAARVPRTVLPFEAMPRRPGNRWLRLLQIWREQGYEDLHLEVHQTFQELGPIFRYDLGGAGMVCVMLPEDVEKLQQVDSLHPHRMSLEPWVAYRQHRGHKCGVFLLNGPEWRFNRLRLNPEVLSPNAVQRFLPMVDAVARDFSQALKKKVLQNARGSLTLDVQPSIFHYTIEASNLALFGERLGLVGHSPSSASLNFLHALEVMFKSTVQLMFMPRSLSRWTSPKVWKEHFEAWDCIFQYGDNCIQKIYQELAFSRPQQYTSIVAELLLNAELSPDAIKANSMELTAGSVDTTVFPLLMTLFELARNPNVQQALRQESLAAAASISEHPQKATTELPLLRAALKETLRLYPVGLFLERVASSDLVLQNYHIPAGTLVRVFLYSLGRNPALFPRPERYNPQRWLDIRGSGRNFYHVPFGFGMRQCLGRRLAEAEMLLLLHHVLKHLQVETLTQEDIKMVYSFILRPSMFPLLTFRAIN
Description: (§1) Herein we identified the use of the G-402 cell line as a host cell to ectopically express (transiently or stably) enzymes of the CYP11 family. Specifically we developed stable G-402 cells expressing ectopically human CYP11B1, human CYP11B2, human CYP11A1, cynomolgus CYP11B1 or cynomolgus CYP11B2 enzyme activity. Importantly, the identified cell line G-402 expresses co-factors (adrenodoxin and adrenodoxin reductase) important for the activity of the CYP11 family, and no relevant enzyme activity of the CYP11 family (in comparison to H295R cells) was detected in these cells. Therefore the G-402 cell line is uniquely suited as a host cell for the ectopic expression of enzymes from the CYP11 family.
(§2) G-402 cells can be obtained from ATCC(CRL-1440) and were originally derived from a renal leiomyoblastoma.
(§3) The expression plasmids contains the ORF for either human/cyno CYP11B1 or CYP11B2 under the control of a suitable promoter (CMV-promoter) and a suitable resistance marker (neomycin). Using standard techniques the expression plasmid is transfected into G-402 cells and these cells are then selected for expressing the given resistance markers. Individual cell-clones are then selected and assessed for displaying the desired enzymatic activity using 11-Deoxycorticosterone (Cyp11B2) or 11-Deoxycortisol (Cyp11B1) as a substrate.
(§4) G-402 cells expressing CYP11 constructs were established as described above and maintained in McCoy's 5a Medium Modified, ATCC Catalog No. 30-2007 containing 10% FCS and 400 μg/ml G418 (Geneticin) at 37° C. under an atmosphere of 5% CO2/95% air. Cellular enzyme assays were performed in DMEM/F12 medium containing 2.5% charcoal treated FCS and appropriate concentration of substrate (0.3-10 uM 11-Deoxycorticosterone, 11-Deoxycortisol or Corticosterone). For assaying enzymatic activity, cells were plated onto 96 well plates and incubated for 16 h. An aliquot of the supernatant is then transferred and analyzed for the concentration of the expected product (Aldosterone for CYP11B2; Cortisol for CYP11B1). The concentrations of these steroids can be determined using HTRF assays from CisBio analyzing either Aldosterone or Cortisol.
(§5) Inhibition of the release of produced steroids can be used as a measure of the respective enzyme inhibition by test compounds added during the cellular enzyme assay. The dose dependent inhibition of enzymatic activity by a compound is calculated by means of plotting added inhibitor concentrations (x-axes) vs. measured steroid/product level (y-axes). The inhibition is then calculated by fitting the following 4-parameter sigmoidal function (Morgan-Mercer-Flodin (MMF) model) to the raw data points using the least squares method:
(§6) [formula] wherein A is the maximum y value, B is the EC50 factor determined using XLFit, C is the minimum y value and D is the slope value.
(§7) EC50 values for compounds claimed herein were tested with the G402-based assay system described. Cyp11B2 enzyme activity was tested in presence of 1 μM Deoxycorticosterone and variable amounts of inhibitors; Cyp11B1 enzyme activity was tested in presence of 1 μM Deoxycortisol and variable amounts of inhibitors.

[2] = target: T2, human CYP11B2 (Homo sapiens, UniProt P19099); experiment: G-402 cellular enzyme assay, human CYP11B2 (aldosterone release, HTRF); format: cell-based; conditions: G-402 cells expressing human CYP11B2; 1 μM Deoxycorticosterone; 16 h
T2 construct: expressed in transfected cells
T2 sequence (P19099 25-503): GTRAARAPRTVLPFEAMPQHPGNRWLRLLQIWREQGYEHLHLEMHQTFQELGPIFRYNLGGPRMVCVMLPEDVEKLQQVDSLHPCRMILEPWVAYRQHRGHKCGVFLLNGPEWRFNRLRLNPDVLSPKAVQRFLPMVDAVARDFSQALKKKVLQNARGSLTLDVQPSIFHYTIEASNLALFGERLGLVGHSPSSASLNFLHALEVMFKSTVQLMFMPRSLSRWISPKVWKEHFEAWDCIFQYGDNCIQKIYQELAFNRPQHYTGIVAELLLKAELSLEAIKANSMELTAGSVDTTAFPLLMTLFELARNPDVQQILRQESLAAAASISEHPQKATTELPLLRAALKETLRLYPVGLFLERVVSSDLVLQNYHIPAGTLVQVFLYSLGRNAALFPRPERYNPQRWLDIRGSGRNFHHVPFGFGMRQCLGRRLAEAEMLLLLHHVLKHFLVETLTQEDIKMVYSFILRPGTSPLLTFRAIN
Description: as §1, §2, §3, §4, §5, §6, §7

SMILES | EC50 [1] [nM] | EC50 [2] [nM]
COc1cc(C(=O)c2cncn2C)ccc1SC(F)(F)F [Example 79, (3-Methoxy-4-trifluoromethylsulfanyl-phenyl)-(3-methyl-3H-imidazol-4-yl)-methanone] | 1580 | 14.8
CCn1cncc1C(=O)c1ccc(SC(F)(F)F)c(OC)c1 [Example 80, (3-Ethyl-3H-imidazol-4-yl)-(3-methoxy-4-trifluoromethylsulfanyl-phenyl)-methanone] | 634 | 12.9
CCn1cncc1C(=O)c1ccc(N(C)C(=O)OC(C)(C)C)cc1 [Example 88, [4-(3-Ethyl-3H-imidazole-4-carbonyl)-phenyl]-methyl-carbamic acid tert-butyl ester] | 1290 | 2200
COc1ccc(C(=O)c2cncn2C)cc1 [Example 4, (4-Methoxy-phenyl)-(3-methyl-3H-imidazol-4-yl)-methanone] | 3500 | 118
COc1cc(C(=O)c2cncn2C)ccc1SC [Example 50, (3-Methoxy-4-methylsulfanyl-phenyl)-(3-methyl-3H-imidazol-4-yl)-methanone] | 687 | 14.8
CSc1ccc(C(=O)c2cncn2C)cc1 [Example 43, (3-Methyl-3H-imidazol-4-yl)-(4-methylsulfanyl-phenyl)-methanone] | 1530 | 28.4
CC(=O)N(C)c1ccc(C(=O)c2cncn2C(C)C)cc1 [Example 59, N-[4-(3-Isopropyl-3H-imidazole-4-carbonyl)-phenyl]-N-methyl-acetamide] | 5040 | 51.3
CCSc1ccc(C(=O)c2cncn2C2CC2)cc1 [Example 70, (3-Cyclopropyl-3H-imidazol-4-yl)-(4-ethylsulfanyl-phenyl)-methanone] | 364 | 22.8
CCn1cncc1C(=O)c1ccc(F)c(C#N)c1 [Example 63, 5-(3-Ethyl-3H-imidazole-4-carbonyl)-2-fluoro-benzonitrile] | 3440 | 335
Cn1cncc1C(=O)c1ccc(Cl)cc1Cl [Example 11, (2,4-Dichloro-phenyl)-(3-methyl-3H-imidazol-4-yl)-methanone] | 1800 | 216
CC(C)n1cncc1C(=O)c1ccc(N(C)C=O)cc1 [Example 93, N-[4-(3-Isopropyl-3H-imidazole-4-carbonyl)-phenyl]-N-methyl-formamide] | 349 | 11.7
CCC(CC)n1cncc1C(=O)c1ccc(SC(F)(F)F)cc1 [Example 76, [3-(1-Ethyl-propyl)-3H-imidazol-4-yl]-(4-trifluoromethylsulfanyl-phenyl)-methanone] | 264 | 42.7
CCn1cncc1C(=O)c1ccc(SC(F)(F)F)cc1 [Example 74, (3-Ethyl-3H-imidazol-4-yl)-(4-trifluoromethylsulfanyl-phenyl)-methanone] | 1320 | 235
C#Cc1ccc(C(=O)c2cncn2C)cc1 [Example 29, (4-Ethynyl-phenyl)-(3-methyl-3H-imidazol-4-yl)-methanone] | 259 | 20.3
N#Cc1cc(C(=O)c2cncn2C2CC2)ccc1F [Example 66, 5-(3-Cyclopropyl-3H-imidazole-4-carbonyl)-2-fluoro-benzonitrile] | 2210 | 447
CCn1cncc1C(=O)c1ccc2c(c1)CCC(=O)N2C [Example 26, 6-(3-Ethyl-3H-imidazole-4-carbonyl)-1-methyl-3,4-dihydro-1H-quinolin-2-one] | 1120 | 19.7
CCn1cncc1C(=O)c1cccc(C#N)c1 [Example 56, 3-(3-Ethyl-3H-imidazole-4-carbonyl)-benzonitrile] | 1210 | 109

Compounds with a lower EC50 [1], results first:

EC50 [1] [nM] | EC50 [2] [nM] | SMILES
22.7 | 14.1 | CCC(C)n1cncc1C(=O)c1cccc(Cl)c1 (stereo not drawn) [Example 28, (3-sec-Butyl-3H-imidazol-4-yl)-(3-chloro-phenyl)-methanone]
14.8 | 2.3 | O=C(c1ccc(Cl)c(F)c1)c1cncn1C1CC1 [Example 40, (4-Chloro-3-fluoro-phenyl)-(3-cyclopropyl-3H-imidazol-4-yl)-methanone]
33 | 4.3 | C#Cc1ccc(C(=O)c2cncn2CC)cc1 [Example 48, (3-Ethyl-3H-imidazol-4-yl)-(4-ethynyl-phenyl)-methanone]
88.2 | 21.5 | CCC(C)n1cncc1C(=O)c1ccc(F)c(C#N)c1 (stereo not drawn) [Example 65, 5-(3-sec-Butyl-3H-imidazole-4-carbonyl)-2-fluoro-benzonitrile]
9.8 | 1.9 | N#Cc1ccc(-n2cncc2C(=O)c2ccc(Cl)cc2)cc1Cl [Example 77, 2-Chloro-4-[5-(4-chloro-benzoyl)-imidazol-1-yl]-benzonitrile]
84.3 | 4 | CCn1cncc1C(=O)c1ccc(SC)c(OC)c1 [Example 60, (3-Ethyl-3H-imidazol-4-yl)-(3-methoxy-4-methylsulfanyl-phenyl)-methanone]
71.8 | 2.2 | N#Cc1ccc(-n2cncc2C(=O)c2ccc(Cl)cc2)cc1 [Example 95, 4-[5-(4-Chloro-benzoyl)-imidazol-1-yl]-benzonitrile]
10.1 | 5.2 | CC(C)n1cncc1C(=O)c1ccc(Br)cc1 [Example 72, (4-Bromo-phenyl)-(3-isopropyl-3H-imidazol-4-yl)-methanone]
46.1 | 2.8 | COc1cc(C(=O)c2cncn2C2CC2)ccc1SC [Example 62, (3-Cyclopropyl-3H-imidazol-4-yl)-(3-methoxy-4-methylsulfanyl-phenyl)-methanone]
31.7 | 3.7 | CCn1cncc1C(=O)c1ccc(F)c(Cl)c1 [Example 33, (3-Chloro-4-fluoro-phenyl)-(3-ethyl-3H-imidazol-4-yl)-methanone]
195 | 62.3 | Cn1cncc1C(=O)c1ccc(Cl)cc1 [Example 1, (4-Chloro-phenyl)-(3-methyl-3H-imidazol-4-yl)-methanone]
52.9 | 6.1 | O=C(c1ccc(Cl)cc1)c1cncn1C1CC1 [Example 19, (4-Chloro-phenyl)-(3-cyclopropyl-3H-imidazol-4-yl)-methanone]
1 | 0.7 | CCC(C)n1cncc1C(=O)c1ccc(C#N)cc1 (stereo not drawn) [Example 16, 4-(3-sec-Butyl-3H-imidazole-4-carbonyl)-benzonitrile]
